Assay results as given in patent publication US20240002326A1, “COMPOUNDS AND USE THEREOF IN METHODS OF TREATMENT” (The University of Queensland, priority 2016, published 2024).

Experiments:
[1] = biological target: SOX18[109] HMG fragment (Mus musculus (Mouse), UniProt P43680); assay: FP DNA-binding competition assay, SOX18[109] HMG fragment; conditions: SOX18/DNA binding; for remaining activity at 50 µM: read-out: FP bound fraction (%) 50 μM; for remaining activity at 200 µM: read-out: FP bound fraction (%) 200 μM
Experimental: Mouse SOX HMG fragments. The HMG domains of mouse SOX2 (Group B), SOX11 (Group C), SOX6 (Group D), SOX9 (Group E), SOX18 (Group F) and SOX15 (Group G) were BP cloned from cDNA templates (IMAGE cDNA clone IDs: Sox18: 3967084; Sox9: 5354229; Sox4: 6822618) into a pDONRTM221 pENTRY vector, sequenced and recombined into a pETG20A or a pHisMBP expression plasmid using Gateway®LR Technology (Ng et al., 2012). Constructs were transformed into Escherichia coli BL21(DE3) cells (Luria-Bertani, 100 μg/ml Ampicillin).
The DNA-binding competition assay was performed in black 384-well plates, with mouse full length SOX18, or SOX-HMG fragments. All experiments were performed using a fluorescently-labelled Prox1-DNA element. Controls consisted of free labelled DNA (low FP milli-Polarization index, mP), labelled DNA in presence of protein (negative control, high mP), and labelled DNA and protein in presence of competing excess of unlabelled DNA (positive control, low mP)
The DNA-binding competition assay was performed in 25 uL, in black 384-well plates, using either 30 mM HEPES (N-2-Hydroxyethylpiperazine-N′-2-Ethanesulfonic Acid) (pH 7.5, with 100 mM KCl, 40 mM NaCl, 10 mM NH4OAc, […], 2 mM MgCl2, 0.5 mM EDTA, 0.01% NP-40) for mouse full length SOX18, or Tris-NaCl (10 mM Tris pH 8.0 and 100 mM NaCl) for SOX-HMG fragments. All experiments were performed using a 40 bp double-stranded Prox1-DNA element with 5′ fluorescein amidite (FAM) label (Sigma Proligo or InVitrogen). Optimum binding levels were obtained at 200 nM of mouse full length SOX18 and 60 nM of SOX-HMG fragment, in presence of 5 nM labelled DNA. Controls consisted of free labelled DNA (low FP milli-Polarization index, mP), labelled DNA in presence of protein (negative control, high mP), and labelled DNA and protein in presence of 400 time competing excess of unlabelled DNA (positive control, low mP). Depending on compound, final DMSO concentrations ranged from 2 to 3.33% v/v. After mixing protein, DNA probe and compound, plates were sealed and briskly agitated in the dark for 5 minutes at room temperature, 10 minutes at 37° C., and 30 minutes at room temperature, before reading fluorescence polarization on a Tecan M1000Pro (λexc=485 nm, λem=525 nm). All experiments were performed in triplicates.
In order to pinpoint the possible binding site of the small molecules, the FP assays were repeated with a shorter, DNA-binding centred protein fragment. The DNA binding domain of SOX TFs consists of the […] amino acid long High Mobility Group (HMG) box. The 109 amino-acid long SOX18 fragment (SOX18[109]) corresponds to residues 69-177 (numbering by mouse SOX18), which includes the HMG box (residues 78-149) and N- and C-terminal flanking sequences of 9 and 28 amino-acids, respectively.

[2] = Cytotoxicity assay (Alamar blue), HEK293; format: cell-based; conditions: human, HEK293 cells; HEK293, 24 h
Experimental: (§1) Cell toxicity was determined using Alamar blue, as previously described (McMillian et al., 2002). COS-7 cells were seeded as 7000 cells per well in black wall clear bottom 96-well plates in DMEM medium (Life Technologies Australia) with 10% FBS. HepG2 and HEK293 cell lines, from ATCC, were seeded as 5000 cells per well in black wall clear bottom 384-well cell culture plates in DMEM with 1% FBS. Cells were cultured for 24 h at 37° C., 5% CO2. A serial dilution of compounds was added, with a final DMSO concentration adjusted to 0.5% v/v. Cells were incubated for another 24 h. 1 Triton X-100 was used as negative control, and 0.5% DMSO as positive control. 5 μM Alamar blue was added to each well and fluorescence was measured (λexc=560 nm, λem=590 nm) after 2 h incubation at 37° C. Data were analysed using Prism software.

[3] = Cytotoxicity assay (Alamar blue), HepG2; format: cell-based; conditions: human, HepG2 cells; HepG2, 24 h
[4] = biological target: SOX18-SOX18 homodimer (Homo sapiens (Human), UniProt P35713); assay: ALPHAScreen SOX18-SOX18 homodimerization; format: binding; conditions: 5 uM
Experimental: (§2) ALPHAScreen was performed as previously described (Sierecki et al., 2014, Sierecki et al., 2013), using the cMyc detection kit and Proxiplate-384 Plus plates (PerkinElmer). The LTE lysate co-expressing the proteins of interest was diluted in buffer A (25 mM HEPES, 50 mM NaCl). For the assay, 12.5 μL (0.4 μg) of Anti-cMyc coated Acceptor Beads in buffer B (25 mM HEPES, 50 mM NaCl, 0.001% NP40, 0.001% casein) were aliquoted into each well. This was followed by the addition of 2 μL of diluted sample, at different concentration, and 2 μL of biotin labeled GFP-Nanotrap in buffer A. The plates were incubated for 45 min at room temperature, then adding 2 μL (0.4 μg) of streptavidin-coated Donor Beads diluted in buffer A, and incubation in the dark for 45 min at room temperature. The ALPHAScreen signal was measured on an Envision Plate Reader (PerkinElmer), using manufacturer's recommended settings (λexc=680/30 nm for 0.18 s, λem=570/100 nm after 37 ms). The resulting bell-shaped curve is an indication of a positive interaction, while a flat line reflects a lack of interaction between the proteins. The measurement of each protein pair was repeated in triplicate.
(§3) I is the highest signal level (top of the hook effect curve) and Ineg is the lowest (background) signal level. The signals were normalized to the Iref signal obtained for the strongest interaction. […] Percentage of interaction was calculated as: […]
(§4) The ALPHA-Screen Assay was performed as previously described (Sierecki et al. 2014), using the cMyc detection kit and Proxiplate-384 Plus plates (PerkinElmer). A serial dilution of each sample was measured. The LTE lysate co-expressing the proteins of interest was diluted in buffer A (25 mM HEPES, 50 mM NaCl). For the assay, 12.5 μL (0.4 μg) of Anti-cMyc coated Acceptor Beads in buffer B (25 mM HEPES, 50 mM NaCl, 0.001% NP40, casein) were aliquoted into each well. This was followed by the addition of 2 μL of diluted sample and 2 μL of biotin labeled GFP-Nanotrap in buffer A. The plate was incubated for 45 min at RT. Afterward, 2 μL (0.4 μg) of Streptavidin coated Donor Beads diluted in buffer A, were added, followed by incubation in the dark for 45 min at RT. The ALPHA-Screen signal was obtained on an Envision Multilabel Plate Reader (PerkinElmer), using the manufacturer's recommended settings (excitation: 680/30 nm for 0.18 s, emission: 570/100 nm after 37 ms). The resulting bell-shaped curve is an indication of a positive interaction, while a flat line reflects a lack of interaction between the proteins. The measurement of each protein pair was repeated a minimum of three times using separate plates. The Binding Index was calculated as: BI=[(I−I_neg)/(I_ref−I_neg)]×100
For PPI disruption assay, protein pairs expressed in LTE were incubated for 1 h with 100 μM Sm4 or DMSO alone (0.7% DMSO final). 100 μM Sm4 or DMSO was also added to buffer B. PPI disruption was calculated as: (1−I_Sm4/I_DMSO)×100.
For IC50 determination, the assay was identical but a dilution range of Sm4 was used (0.3 to 300 μM). Percentage of interaction was calculated as: I_Sm4/1 DMSO×100. Data from at least 3 independent experiments were fitted in GraphPad Prism (RRID: SCR_007370) version 6.0 using 3-parameter non-linear regression.

[5] = tested on: HEK293; assay: Cytotoxicity assay (Alamar blue), HEK293; format: cell-based; conditions: HEK293, 24 h
Experimental: as §1

[6] = tested on: HepG2; assay: Cytotoxicity assay (Alamar blue), HepG2; format: cell-based; conditions: HepG2, 24 h
[7] = biological target: SOX18-RBPJ interaction (Homo sapiens (Human), UniProt P35713); assay: ALPHAScreen SOX18-RBPJ protein-protein interaction; format: binding; conditions: 5 μM
Description: Proteins were genetically encoded with enhanced GFP (GFP), mCherry and cMyc (myc) tags, and cloned into cell free expression Gateway destination vectors: N-terminal GFP tagged (pCellFree_G03), N-terminal Cherry-cMyc (pCellFree_G07) and C-terminal Cherry-cMyc tagged (pCellFree_G08) (Gagoski et al., 2015). Human RBPJ (BC020780) and MEF2C (BC026341) Open Reading Frames (ORFs) were sourced from the Human ORFeome collection, version 1.1 and 5.1, and the Human Orfeome collaboration OCAA collection (Open Biosystems), as previously described (Sierecki et al., 2013) and cloned at the ARVEC facility, UQ Diamantina Institute. The entry clones pDONOR223 or pENTR201 vectors were exchanged with the ccdB gene in the expression plasmid by LR recombination (Life Technologies, Australia). The full-length human SOX18 gene was synthesized and the transfer to vectors was realized using Gateway PCR cloning. Translation competent Leishmania tarentolae extract (LTE) was prepared as previously described (Kovtun et al., 2011, Mureev et al., 2009). Protein pairs were co-expressed by adding 30 nM of GFP template plasmid and 60 nM of Cherry template plasmid to LTE and incubating for 3 hours at 27° C.
ALPHAScreen was performed as previously described (Sierecki et al., 2014, Sierecki et al., 2013). […] Percentage of interaction was calculated as: (I_cpd/I_DMSO)×100 from 3 independent experiments.
as §2, §3
as §4, with “The measurement of each protein pair was repeated a minimum of three times using separate plates. The Binding Index was calculated as: BI=[(I−I_neg)/(I_ref−I_neg)]×100” left out

Sequence of SOX18[109] HMG fragment (P43680 69-177): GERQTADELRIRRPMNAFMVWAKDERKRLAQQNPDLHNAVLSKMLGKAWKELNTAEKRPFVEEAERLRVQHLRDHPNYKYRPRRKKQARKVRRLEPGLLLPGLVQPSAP
Sequence of SOX18-SOX18 homodimer (P35713 whole entry): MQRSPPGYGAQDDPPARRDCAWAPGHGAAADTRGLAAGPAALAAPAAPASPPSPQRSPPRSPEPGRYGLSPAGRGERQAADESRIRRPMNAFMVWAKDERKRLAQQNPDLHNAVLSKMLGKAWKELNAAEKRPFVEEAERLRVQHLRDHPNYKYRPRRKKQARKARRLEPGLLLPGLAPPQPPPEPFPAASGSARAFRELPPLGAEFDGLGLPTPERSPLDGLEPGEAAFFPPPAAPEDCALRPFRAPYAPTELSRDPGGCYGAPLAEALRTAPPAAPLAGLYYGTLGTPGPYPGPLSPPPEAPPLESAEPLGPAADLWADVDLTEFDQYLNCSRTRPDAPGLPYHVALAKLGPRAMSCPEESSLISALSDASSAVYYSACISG
Sequence of SOX18-RBPJ interaction (P35713 whole entry): as above

| remaining activity at 50 µM [1] [%] | remaining activity at 200 µM [1] [%] | inhibitory activity in respect of SOX18-SOX18 homodimerization [4] | SOX18-RBPJ protein-protein binding inhibition at 5 μM [7] | Compound | CC50 at 24 h [2] [µM] | CC50 at 24 h [3] [µM] | FP bound fraction (%) 50 μM [1] [%] | FP bound fraction (%) 200 μM [1] [%] | CC50 [5] [µM] | CC50 [6] [µM] |
| --- | --- | --- | --- | --- | --- | --- | --- | --- | --- | --- |
| 97.7 ± 5.9 | 91.7 ± 2.1 | some inhibitory activity | – | COc1cc(Cl)cc(/C=C/c2ccc3ccccc3c2)c1C(=O)O [Sm31, (E)-4-chloro-2-methoxy-6-(2-(naphthalen-2-yl)vinyl)benzoic acid] | 92.7 | > 100 | – | – | – | – |
| – | – | – | – | O=C(O)c1c(O)cc(Cl)cc1CCc1ccc2ccccc2c1 [Sm33, (E)-4-chloro-2-hydroxy-6-(2-(naphthalen-2-yl)ethyl)benzoic acid] | – | – | 50.1 ± 54.6 | 9.9 ± 2.3 | 33.4 | 34.5 |
| – | – | – | – | N,N-diethyl-2-methoxy-6-(2-(naphthalene-2-yl)vinyl)benzamide [Sm17] | – | – | 100.3 ± 6.0 | 117.0 ± 10.9 | 62.6 | 38.5 |
| – | – | – | – | COc1cc(O)c(C(=O)O)c(C=Cc2ccc3ccccc3c2)c1 (mixture of isomers) [Sm28, (E/Z)-2-hydroxy-4-methoxy-6-(2-(naphthalen-2-yl)vinyl)benzoic acid] | – | – | 76.3 ± 2.3 | 19.3 ± 8.4 | 65.1 | 78.9 |
| 98.7 ± 5 | 107 ± 21.3 | – | highly active | CCN(CC)C(=O)c1c(O)cccc1CCc1ccc2ccccc2c1 [Sm18, N,N-diethyl-2-hydroxy-6-(2-(naphthalen-2-yl)ethyl)benzamide] | 38.7 | 28 | – | – | – | – |
| 98.2 ± 7.4 | 104 ± 10.4 | some inhibitory activity | – | COc1cc(/C=C\c2ccccc2)cc(OC)c1OC [Sm37, (Z)-1,2,3-trimethoxy-5-styrylbenzene] | > 100 | > 100 | – | – | – | – |

| Compound | remaining activity at 50 µM [1] [%] | remaining activity at 200 µM [1] [%] | inhibitory activity in respect of SOX18-SOX18 homodimerization [4] | SOX18-RBPJ protein-protein binding inhibition at 5 μM [7] | CC50 at 24 h [2] [µM] | CC50 at 24 h [3] [µM] | FP bound fraction (%) 50 μM [1] [%] | FP bound fraction (%) 200 μM [1] [%] | CC50 [5] [µM] | CC50 [6] [µM] |
| --- | --- | --- | --- | --- | --- | --- | --- | --- | --- | --- |
| COc1cc(/C=C\c2ccc3ccccc3c2)cc(OC)c1OC [Sm41, (Z)-2-(3,4,5-trimethoxystyryl)naphthalene] | 100 ± 10 | 90.2 ± 46.1 | some inhibitory activity | – | > 100 | > 100 | – | – | – | – |
